What was measured:
U-87 MG cells = assay: Cell proliferation assay in U-87 MG cells; type: cell-based; conditions: Homo sapiens, 240 h, day 10, read-out: Prolif_U87 IC50
Method: One day before experiment, Granta-519 cells were passaged to a density of 0.5×10^6 cells/ml. U-87 MG cells were trypsinized and 2,000 cells were seeded into 96-well plates and allow to grow overnight. On the day of experiment (day 0), Granta-519 Cells were spun down at 1,500 rpm for 4 min, resuspended in fresh medium to 0.5×10^6 cells/ml and 190 ul of cells were added to 96 well plates. For U-87 MG cells, old medium was removed and replaced with 190 uL fresh medium. Compound working stocks were first diluted at 1:50 with fresh medium in 96 well plate and 10 μL of diluted drugs were added to 96 well plates containing cells and incubated for 3 days. DMSO was used a vehicle control.
One day 3, 50 uL of Granta-519 cells were transferred to a new 96-well plate and 140 uL fresh medium was added. For U-87 MG cells, old medium was removed and replaced with 190 uL fresh medium. Compound working stocks were freshly diluted at 1:50 with medium and 10 μL of diluted drugs were added to cells and grow for 3 additional days. The same process was repeated on day 6. Cells were allowed to grow for additional 4 days.
On day 10, 100 uL Granta-519 cells were transferred to a new 96 well plate and 10 μL of Cell Counting Kit-8 (CCK-8, Jojindo, CK04-13) solution was added. For U-87 MG cells, old medium was removed and replaced with 100 uL fresh medium and 10 uL CCK-8 solution was added. Plates were incubated in CO2 incubator for 2 hours (Granta-519 cells) or 30 min (U-87 MG cells) and OD450 values were measured with a microplate reader (iMark microplate reader, Bio-Rad). Percentage of viable cells, relative to DMSO vehicle control, were calculated and plotted in Graphpad Prism ([Inhibitor]vs. normalized response−Variable slope) to determine proliferation IC50 values on day 10.
These cell proliferation procedures produced the data in Table 7.

[1] = tested on: Symmetric Di-Methyl Arginine (sDMA) marks in Granta-519 cells; assay: sDMA Western blot / In Cell Western in Granta-519 cells; type: cell-based; conditions: Homo sapiens, 72 h; Granta-519, 3 days; read-out: sDMA_Granta IC50
Method: (§1) Compound titration and cell culture: Compounds were dissolved in DMSO to make 10 mM stock and 3-fold series dilutions were further conducted to make working stocks top at 1 mM. Granta-519 cells were maintained in PRMI 1640 (Corning Cellgro, Catalog #: 10-040-CV) supplemented with 10% v/v FBS (GE Healthcare, Catalog #: SH30910.03) and U-87 MG cells were maintained in DMEM (Corning Cellgro, Catalog #: 10-013-CV) with 10% FBS and 2 mM Glutamin (Corning Cellgro, Catalog #25005CV).
(§2) To determine enzyme inhibition IC50 values in Granta-519 and U-87 MG cells using Western Blot analysis. One day before experiment, Granta-519 cells were passaged to a density of 0.5×10^6 cells/ml. U-87 MG cells were trypsinized and 4×10^5 cells were seeded into 6-well plates and allow to grow overnight. The next day, Granta-519 cells were spun down at 1,500 rpm for 4 min, resuspend in fresh medium at 0.5×10^6 cells/ml and 3 mL of culture (1.5×10^6 cells) were seeded into 6 well plate. Eight-point, 3-fold serial dilutions of compound working stocks were added to cells (3 ul, 1:1,000 dilution, DMSO concentration was 0.1%; final top concentration at 1 uM) and incubated for 3 days. Cells incubated with DMSO was used as a vehicle control.
(§3) Cells were harvested 3 days later, resuspended in 15 uL PBS, lysed in 4% SDS, and homogenized by passing through homogenizer column (Omega Biotek, Catalog #: HCR003). Total protein concentrations were determined by BCA assay (ThermoFisher Scientific, Catalog #: 23225). Lysates were mixed with 5× Laemmli buffer and boiled for 5 min. Forty ug of total protein was separated on SDS-PAGE gels (Bio-Rad, catalog #: 4568083, 4568043), transferred to PVDF membrane, blocked with 5% dry milk (Bio-Rad, Catalog #: 1706404) in TBS with 0.1% v/v Tween 20 (TBST) for 1 hour at room temperature (RT), and incubated with primary antibodies (sDMA: Cell signaling, Catalog #: 13222, 1:3,000; β-Actin: sigma, Catalog #: 1:5,000) in 5% dry milk in TBST at 4° C. overnight. The next day, membranes were washed with TBST, 5×5 min, and incubated with HRP conjugated seconded antibody (GE Healthcare; Catalog #: NA934-1ML, NA931-1ML; 1:5,000) for 2 hours at RT, followed by 5×5 min washes with TBST, and incubation with ECL substrates (Bio-Rad, Catalog #: 1705061, 1705062). Chemiluminescent signal was captured with Fluochem HD2 imager (Proteinsimple). SmD3me2s bands were quantified by ImageJ. Signals were normalized to β-Actin and DMSO control. IC50 values were calculated using Graphpad Prism ([Inhibitor]vs. normalized response−Variable slope).
sDMA In Cell Western procedure (ICW): Granta-519 cells were passaged to a density of 0.5×10^6 cells/ml one day before experiments and allowed to grow overnight. The next day (day 0), cells were spun down at 1,500 rpm for 4 min, resuspended in fresh medium to 0.2×10^6 cells/ml and 100 uL of cells were added to 384-well plates using a Multidrop Combi Dispenser (ThermoFisher). A series of 9-point, 3-fold serial dilutions of compounds were prepared and dispensed into wells from a 1 mM stock solution using a TECAN digital dispenser (D300e) and the DMSO % concentration was normalized in each well to 0.1%. DMSO and 3 uM of reference compounds were used as negative (minimum inhibition) and positive (maximum inhibition) controls, respectively. After 3 days of incubation, cells were first resuspended and then 80 ul of cells were transferred to a Poly-D-lysine 384-well plate (Corning, Catalog #354663), followed by 30 minutes incubation at room temperature (RT) and 5 additional hours of incubation at 37° C. […]

PRMT5/MEP50 complex [2] = target: T1, PRMT5/MEP50 complex (Homo sapiens (Human), UniProt O14744); assay: Flash plate assay; type: biochemical; conditions: read-out: Flash Plate IC50
Method: Flash plate assay. Compounds were solubilized, and 3-fold diluted in 100% DMSO. […] Standard reactions were performed in a total volume of 30 μl in assay buffer, with 300 nM histone H4 based AcH4-23 (Anaspec: AS-65002) as substrate. To this was added the PRMT5/MEP50 complex diluted to provide a final assay concentration of 2.5 nM and the compounds were allowed to preincubate for 20 minutes at 37° C. The reaction was initiated by adding S-[3H-methyl]-adenosyl-L-methionine (PerkinElmer: NET155001MC) to final concentration of 1 μM. Following a 30 minutes incubation at 37° C., the reaction was stopped by adding 25 μL of 8M Guanidine HCl. Prepare streptavidin YSI SPA beads (Perkinelmer: RPNQ0012) at 0.3 mg/mL in assay buffer. To each reaction, add 150 μL of SPA beads suspension, and incubated while shaking at room temperature for 30 minutes. The plate was centrifuged at 100×g for 30 second before reading in a scintillation counter. IC50 values were determined by fitting the data to the standard 4 parameters with Hill Slope using GraphPad Prism software. This procedure produced the Flash Plate data in Table 7.

[3] = tested on: Symmetric Di-Methyl Arginine (sDMA) marks in U-87 MG cells; assay: sDMA Western blot / In Cell Western in U-87 MG cells; type: cell-based; conditions: Homo sapiens, 72 h, 3 days, read-out: sDMA_U87 IC50
Method: as §1, §2, §3
U87-MG cells were trypsinized one day before the experiment, seeded into a 384-well plate at 2500 cells/well using a Multidrop Combi Dispenser (ThermoFisher) and allowed to grow overnight. The next day (day 0), a series of 9-point, 3-fold serial dilutions of compounds were prepared and dispensed into wells from a 1 mM stock solution using a TECAN digital dispenser (D300e) and the DMSO % concentration was normalized to 0.1%. Three days later, media was removed, and cells were processed as described above.
To determine IC50 values, the ratio for each well was calculated (sDMA 800 nm value/DRAQ5 700 nm value). Each plate included 28 negative control wells (DMSO only, minimum inhibition) and 18 positive control wells for maximum inhibition (treated with 3 uM of a reference compounds, background wells). The average ratios of minimum and maximum inhibition controls were calculated and used to determine the percentage of sDMA, relative to DMSO, for each well in the plate.
These procedures generated the sDMA data in Table 7.

PRMT5/MEP50 complex [4] = target: T1, PRMT5/MEP50 complex; assay: HotSpot Assay; type: biochemical
Method: HotSpot Assay. Compounds were solubilized and 3-fold diluted in 100% DMSO. […] Standard reactions were performed in a total volume of 50 μl in assay buffer, with histone H2A (5 μM final) as substrate. To this was added the PRMT5/MEP50 complex diluted to provide a final assay concentration of 5 nM and the compounds were allowed to preincubate for 15 to 20 minutes at room temperature. The reaction was initiated by adding S-[3H-methyl]-adenosyl-L-methionine (PerkinElmer) to final concentration of 1 μM. Following a 60 minutes incubation at 30° C., the reaction was stopped by adding 100 μL of 20% TCA. Each reaction was spotted onto filter plate (MultiScreen FB Filter Plate, Millipore), and washed 5 times with PBS buffer, Scintillation fluid was added to the filter plate and read in a scintillation counter. IC50 values were determined by fitting the data to the standard 4 parameters with Hill Slope using GraphPad Prism software. This procedure generated the HotSpot data in Table 7.

T1 sequence (O14744 whole entry): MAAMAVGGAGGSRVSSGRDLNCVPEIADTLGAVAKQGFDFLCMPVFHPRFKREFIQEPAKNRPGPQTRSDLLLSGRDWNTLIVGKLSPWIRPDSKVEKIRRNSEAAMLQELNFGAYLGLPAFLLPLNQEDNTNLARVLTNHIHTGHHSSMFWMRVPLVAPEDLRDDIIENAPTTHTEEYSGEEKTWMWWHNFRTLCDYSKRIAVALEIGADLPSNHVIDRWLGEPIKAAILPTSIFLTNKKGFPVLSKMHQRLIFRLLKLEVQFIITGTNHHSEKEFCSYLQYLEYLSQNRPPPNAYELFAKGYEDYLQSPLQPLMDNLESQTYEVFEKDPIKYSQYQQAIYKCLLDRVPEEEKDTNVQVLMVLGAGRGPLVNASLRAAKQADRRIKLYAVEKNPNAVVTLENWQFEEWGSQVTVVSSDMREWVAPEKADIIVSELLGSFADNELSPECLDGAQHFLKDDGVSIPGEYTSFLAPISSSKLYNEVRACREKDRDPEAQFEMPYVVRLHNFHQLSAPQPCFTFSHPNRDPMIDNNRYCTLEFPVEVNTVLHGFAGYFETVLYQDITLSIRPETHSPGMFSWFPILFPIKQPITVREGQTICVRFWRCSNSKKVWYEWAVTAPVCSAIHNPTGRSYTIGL
T1 sequence (Q9BQA1 whole entry partner): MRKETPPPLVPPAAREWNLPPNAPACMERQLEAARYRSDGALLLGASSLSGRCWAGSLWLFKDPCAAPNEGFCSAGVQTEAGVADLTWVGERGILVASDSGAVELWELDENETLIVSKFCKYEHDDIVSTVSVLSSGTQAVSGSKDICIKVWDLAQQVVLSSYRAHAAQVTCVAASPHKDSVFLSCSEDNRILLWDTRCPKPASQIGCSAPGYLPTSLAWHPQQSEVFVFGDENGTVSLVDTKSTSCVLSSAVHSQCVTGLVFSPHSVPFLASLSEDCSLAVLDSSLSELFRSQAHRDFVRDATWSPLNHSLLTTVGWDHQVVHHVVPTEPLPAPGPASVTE

SMILES | IC50 (U-87 MG cells) [nM] | IC50 [1] [nM] | IC50 (PRMT5/MEP50 complex [2]) [nM] | IC50 [3] [nM] | IC50 (PRMT5/MEP50 complex [4]) [nM]
COCCc1ncnc2c1ccn2[C@@H]1O[C@H]([C@H](O)c2ccc3c(c2)CC3)[C@@H](O)[C@H]1O [Example 48, (2R,3S,4R,5R)-2-((R)-bicyclo[4.2.0]octa-1(6),2,4-trien-3-yl(hydroxy)methyl)-5-(4-(2-methoxyethyl)-7H-pyrrolo[2,3-d]pyrimidin-7-yl)tetrahydrofuran-3,4-diol] | 10000 | 337 | 74 | 758 | 
Cc1ncnc2c1ccn2[C@@H]1O[C@H]([C@](C)(O)c2ccc3c(c2)CC3)[C@@H](O)[C@H]1O [Example 9, (2S,3S,4R,5R)-2-((R)-1-(bicyclo[4.2.0]octa-1(6),2,4-trien-3-yl)-1-hydroxyethyl)-5-(4-methyl-7H-pyrrolo[2,3-d]pyrimidin-7-yl)tetrahydrofuran-3,4-diol] | 388 |  | 24.3 | 110 | 5
O[C@@H]1[C@H](O)[C@@H]([C@H](O)c2ccc3c(c2)CC3)O[C@H]1n1ccc2c(CF)ncnc21 [Example 49, (2R,3S,4R,5R)-2-((R)-bicyclo[4.2.0]octa-1(6),2,4-trien-3-yl(hydroxy)methyl)-5-(4-(fluoromethyl)-7H-pyrrolo[2,3-d]pyrimidin-7-yl)tetrahydrofuran-3,4-diol] | 10000 | 375 | 78 | 625 | 

The remaining lines, values ahead:

IC50 (U-87 MG cells) [nM] | IC50 [1] [nM] | IC50 (PRMT5/MEP50 complex [2]) [nM] | IC50 [3] [nM] | IC50 (PRMT5/MEP50 complex [4]) [nM] | SMILES
 | 203 | 4.4 |  | 6 | Nc1ncnc2c1ccn2[C@@H]1O[C@H]([C@H](O)c2ccc3c(c2)OCC3)[C@@H](O)[C@H]1O [Example 14, (2R,3R,4S,5R)-2-(4-amino-7H-pyrrolo[2,3-d]pyrimidin-7-yl)-5-((R)-(2,3-dihydrobenzofuran-6-yl)(hydroxy)methyl)tetrahydrofuran-3,4-diol]
547 |  | 6.6 | 54 |  | Nc1ncnc2c1ccn2[C@@H]1O[C@H]([C@H](O)c2ccc3c(c2)CCC3)[C@@H](O)[C@H]1O [Example 45, (2R,3R,4S,5R)-2-(4-amino-7H-pyrrolo[2,3-d]pyrimidin-7-yl)-5-((R)-(2,3-dihydro-1H-inden-5-yl)(hydroxy)methyl)tetrahydrofuran-3,4-diol]
1160 |  | 23.7 | 113 |  | Cc1ncnc2c1ccn2[C@@H]1O[C@H]([C@H](O)c2ccc3c(c2)CCC3)[C@@H](O)[C@H]1O [Example 44, (2R,3S,4R,5R)-2-((R)-(2,3-dihydro-1H-inden-5-yl)(hydroxy)methyl)-5-(4-methyl-7H-pyrrolo[2,3-d]pyrimidin-7-yl)tetrahydrofuran-3,4-diol]
